The record followed here is patent publication US20050004186A1, “MEK inhibiting compounds” (Pfizer Inc, priority 2002, published 2005).

What is called melting point is the temperature, or range, at which the solid turns liquid. The term IC50 denotes the point on the concentration scale where inhibition reaches its midpoint. Low readings indicate inhibition by little substance, high ones a need for much substance.

A value given as a limit tells only on which side of the number the result lay.

Data set [1] has as its system MEK. Briefly: Cellular assay for measuring MEK inhibition, C26CPA1 (inhibition of ERK phosphorylation in C26 cells). The class given is cell-based, murine. The settings on record: murine colon 26 (C26) carcinoma cells, one hour at 37 C. An outline of the steps: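 Exponentially growing murine C26 carcinoma cells treated with test compound for one hour at 37° C. CPA1 read-out: Western blot of lysates with dually phosphorylated ERK1/2 antibody, re-probed for total ERK1/2. ELSA read-out: pERK enzyme immunometric ELISA on SDS lysates diluted 1:15.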

Data set [2] deals with MEK. Briefly: Cellular assay for measuring MEK inhibition, C26ELSA (pERK ELISA format in C26 cells). The data set is classed as cell-based, murine. The conditions noted are these: for C26ELSA % Inhibition @ 5 μM / C26ELSA % Inhib @ 0.5 μM: C26 cells; for IC50: murine colon 26 (C26) carcinoma cells, one hour at 37 C. Here is the method:
Cellular Assay for Measuring MEK Inhibition
MEK inhibitors were evaluated by determining their ability to inhibit phosphorylation of MAP kinase (ERK) in murine colon 26 (C26) carcinoma cells. Since ERK1 and ERK2 represent the only known substrates for MEK1 and MEK2, the measurement of inhibition of ERK phosphorylation in cells provides direct read out of cellular MEK inhibition by the compounds of the invention. Detection of phosphorylation of ERK was carried out either by Western blot or ELISA format. Briefly, the assays involve treatment of exponentially growing C26 cells with varying concentrations of the test compound (or vehicle control) for one hour at 37≡ C. For Western blot assay, cells were rinsed free of compound/vehicle and lysed in a solution containing 70 mM NaCl, 50 mM glycerol phosphate, 10 mM HEPES, […], 1% Triton X-100, 1 mM Na3VO4, 100 μM PMSF, 10 μM leupeptin and 10 μM pepstatin. Supernatants were then subjected to gel electrophoresis and hybridized to a primary antibody recognizing dually phosphorylated ERK1 and ERK2. To evaluate total MAPK levels, blots were subsequently ‘stripped’ and re-probed with a 1:1 mixture of polyclonal antibodies recognizing unphosphorylated ERK1 and ERK2. For pERK ELISA assay, pERK TiterZyme Enzyme immunometric Assay kits were acquired from Assay Designs, Inc (Ann Arbor, Mich.). Briefly, cells were harvested in lysis solution containing 50 mM β-glycerophosphate, 10 mM HEPES, pH7.4, 70 mM NaCl, 2 mM EDTA and 1% SDS and protein lysates were diluted 1:15 with supplied Assay buffer prior to the execution of the assay. The subsequent steps were carried out essentially as recommended by the manufacturer.

For `COc1ccc(Nc2nnc(-c3ccc(F)c(F)c3Nc3ccc(I)cc3F)o2)c(OC)c1` [Example 6, {5-[3,4-Difluoro-2-(2-fluoro-4-iodo-phenylamino)-phenyl]-[1,3,4]oxadiazol-2-yl}-(2.4-dimethoxy-phenyl)-amine], the melting point lay within 185 to 186 °C. This compound also returned an IC50 in the data set with MEK [1] greater than 1000 nM. In turn, `CN(C)c1ccc(Nc2nnc(-c3ccc(F)c(F)c3Nc3ccc(I)cc3F)o2)cc1` [Example 7, N-{5-[3,4-Difluoro-2-(2-fluoro-4-iodo-phenylamino)-phenyl]-[1,3,4]oxadiazol-2-yl}-N′,N′-dimethyl-benzene-1,4-diamine] came in with a melting point of 230 to 233 °C. The IC50 in the data set on MEK [1] was greater than 1000 nM. For `OCC(O)CNc1nnc(-c2ccc(F)c(F)c2Nc2ccc(I)cc2F)o1` (centres unmarked) [Example 8, 3-{5-[3,4-Difluoro-2-(2-fluoro-4-iodo-phenylamino)-phenyl]-[1,3,4]oxadiazol-2-ylamino}-propane-1,2-diol], in that order: 157 to 159 °C and 67 nM. `CCN(CC)CCCNc1nnc(-c2ccc(F)c(F)c2Nc2ccc(I)cc2F)o1` [Example 10, N-{5-[3,4-Difluoro-2-(2-fluoro-4-iodo-phenylamino)-phenyl]-[1,3,4]oxadiazol-2-yl}-N′,N′-diethyl-propane-1,3-diamine] gave a melting point of 116 to 118 °C. In addition, in the data set with MEK [1], it took 153 nM to reach half-maximal inhibition (IC50). For `CN(C)CC(C)(C)CNc1nnc(-c2ccc(F)c(F)c2Nc2ccc(I)cc2F)o1` [Example 19, N-{5-[3,4-Difluoro-2-(2-fluoro-4-iodo-phenylamino)-phenyl]-[1,3,4]oxadiazol-2-yl}-2,2,N′,N′-tetramethyl-propane-1.3-diamine], in that order: 143 to 146 °C and 309 nM. Take `COCCN1CCN(c2nnc(-c3ccc(F)c(F)c3Nc3ccc(I)cc3F)o2)CC1` [Example 22, (2,3-Difluoro-6-{5-[4-(2-methoxy-ethyl)-piperazin-1-yl]-[1,3,4]oxadiazol-2-yl}-phenyl)-(2-fluoro-4-iodo-phenyl)-amine]: the melting point lay in the range of 63 to 65 °C. Besides, in the data set on MEK [1], the IC50 came to 130 nM. For `CC(C)(CO)CCCNc1nnc(-c2ccc(F)c(F)c2Nc2ccc(I)cc2F)o1` [Example 23, 5-{5-[3,4-Difluoro-2-(2-fluoro-4-iodo-phenylamino)-phenyl]-[1,3,4]oxadiazol-2-ylamino}-2,2-dimethyl-pentan-1-ol] the same measures were 67 to 70 °C and 292 nM. For `OC1CCN(c2nnc(-c3ccc(F)c(F)c3Nc3ccc(I)cc3F)o2)C1` (centres unmarked) [Example 24, 1-{5-[3.4-Difluoro-2-(2-fluoro-4-iodo-phenylamino)-phenyl]-[1,3,4]oxadiazol-2-yl}-pyrrolidin-3-ol], in that order: 182 to 183 °C and 170 nM. For `OCC1CCN(c2nnc(-c3ccc(F)c(F)c3Nc3ccc(I)cc3F)o2)CC1` [Example 25, (1-{5-[3,4-Difluoro-2-(2-fluoro-4-iodo-phenylamino)-phenyl]-[1,3,4]oxadiazol-2-yl}-piperidin-4-yl)-methanol], in that order: 90 to 92 °C and greater than 1000 nM. In turn, `OCCC1CCN(c2nnc(-c3ccc(F)c(F)c3Nc3ccc(I)cc3F)o2)CC1` [Example 26, 2-(1-{5-[3,4-Difluoro-2-(2-fluoro-4-iodo-phenylamino)-phenyl]-[1,3,4]oxadiazol-2-yl}-piperidin-4-yl)-ethanol] came in with a melting point of 121 to 122 °C. The same compound came in with an IC50 in the data set with MEK [1] of 140 nM. For `CCN(CCCCO)c1nnc(-c2ccc(F)c(F)c2Nc2ccc(I)cc2F)o1` [Example 27, 4-({5-[3,4-Difluoro-2-(2-fluoro-4-iodo-phenylamino)-phenyl]-[1,3,4]oxadiazol-2-yl}-ethyl-amino)-butan-1-ol], in that order: 121 to 122 °C and 180 nM. For `OC1CCN(c2nnc(-c3ccc(F)c(F)c3Nc3ccc(I)cc3F)o2)CC1` [Example 28, 1-{5-[3,4-Difluoro-2-(2-fluoro-4-iodo-phenylamino)-phenyl]-[1,3,4]oxadiazol-2-yl}-piperidin-4-ol] the same measures were 216 to 217 °C and 74 nM. For `OCCNc1nnc(-c2ccc(F)c(F)c2Nc2ccc(I)cc2F)o1` [Example 29, 2-{5-[3,4-Difluoro-2-(2-fluoro-4-iodo-phenylamino)-phenyl]-[1,3,4]oxadiazol-2-ylamino}-ethanol] the same measures were 100 to 103 °C and 15 nM. Regarding `OCCCCNc1nnc(-c2ccc(F)c(F)c2Nc2ccc(I)cc2F)o1` [Example 31, 4-{5-[3,4-Difluoro-2-(2-fluoro-4-iodo-phenylamino)-phenyl]-[1,3,4]oxadiazol-2-ylamino}-butan-1-ol], the melting point was in the range of 82 to 83 °C. The IC50 in the data set with MEK [1] worked out at 12 nM. For `OCCCCCNc1nnc(-c2ccc(F)c(F)c2Nc2ccc(I)cc2F)o1` [Example 32, 5-{5-[3,4-Difluoro-2-(2-fluoro-4-iodo-phenylamino)-phenyl]-[1,3,4]oxadiazol-2-ylamino}-pentan-1-ol], in that order: 119 to 121 °C and 120 nM. For `CCc1ccc(Nc2c(-c3nnc(NCCNC)o3)ccc(F)c2F)c(F)c1` [Example 67, N-{5-[2-(4-Ethyl-2-fluoro-phenylamino)-3,4-difluoro-phenyl]-[1,3,4]oxadiazol-2-yl}-N′-methyl-ethane-1,2-diamine] the same measures were 154 to 157 °C and 16 nM. For `CCc1ccc(Nc2c(-c3nnc(NCCN4CCOCC4)o3)ccc(F)c2F)c(F)c1` [Example 68, {5-[2-(4-Ethyl-2-fluoro-phenylamino)-3,4-difluoro-phenyl]-[1,3,4]oxadiazol-2-yl}-(2-morpholin-4-yl-ethyl)-amine] the same measures were 233 to 238 °C and 50 nM. In the case of `CCc1ccc(Nc2c(-c3nnc(NCCO)o3)ccc(F)c2F)c(F)c1` [Example 69, 2-{5-[2-(4-Ethyl-2-fluoro-phenylamino)-3,4-difluoro-phenyl]-[1,3,4]oxadiazol-2-ylamino}-ethanol], the melting point is 100 to 103 °C. Also, the IC50 with MEK [1] is 100 nM. Turning to `CCNc1nnc(-c2ccc(F)c(F)c2Nc2ccc(I)cc2F)s1` [Example 71, {5-[3,4-Difluoro-2-(2-fluoro-4-iodo-phenylamino)-phenyl]-[1,3,4]thiadiazol-2-yl}-ethyl-amine], the melting point was in the range of 238 to 239 °C. This compound also yielded an IC50 in the data set with MEK [1] of 180 nM.

For `C#Cc1ccc(Nc2c(-c3nnc(CC)o3)ccc(F)c2F)c(F)c1` [Example 144, [6-(5-Ethyl-[1,3,4]oxadiazol-2-yl)-2,3-difluoro-phenyl]-(4-ethynyl-2-fluoro-phenyl)-amine], the “C26ELSA % Inhibition @ 5 μM” value in the data set on MEK [2] is listed as 43%. The same measure, in the same setting: under `CCc1ccc(Nc2c(-c3nnc(CCCBr)o3)ccc(F)c2F)c(F)c1` [Example 145, {6-[5-(3-Bromo-propyl)-[1,3,4]oxadiazol-2-yl]-2,3-difluoro-phenyl}-(4-ethyl-2-fluoro-phenyl)-amine] stands 13%. Still for that read-out and setting: under `CCc1ccc(Nc2c(-c3nnc(CCCN4CCOCC4)o3)ccc(F)c2F)c(F)c1` [Example 146, {2,3-Difluoro-6-[5-(3-morpholin-4-yl-propyl)-[1,3,4]oxadiazol-2-yl]-phenyl}-(4-ethyl-2-fluoro-phenyl)-amine] stands 6%. For `CC(=O)c1ccc(Nc2c(-c3nnc(NCCN4CCOCC4)o3)ccc(F)c2F)c(F)c1` [Example 149, 1-(4-{2,3-Difluoro-6-[5-(2-morpholin-4-yl-ethylamino)-[1,3,4]oxadiazol-2-yl]-phenylamino}-3-fluoro-phenyl)-ethanone], in the data set with MEK [2], the “C26ELSA % Inhib @ 0.5 μM” value was 2% and the “C26ELSA % Inhibition @ 5 μM” value was found to be 14%. Compound `C#Cc1ccc(Nc2c(-c3nnc(NC[C@@H](O)CO)o3)ccc(F)c2F)c(F)c1` [Example 151, 3-{5-[2-(4-Ethynyl-2-fluoro-phenylamino)-3,4-difluoro-phenyl]-[1,3,4]oxadiazol-2-ylamino}-propane-1,2(R)-diol] came in with an IC50 with MEK [2] of 120 nM.

For the compound `OCCc1ccc(Nc2c(-c3nnc(NCCN4CCOCC4)o3)ccc(F)c2F)c(F)c1` [Example 157, 2-(4-{2,3-difluoro-6-[5-(2-morpholin-4-yl-ethylamino)-[1,3,4]oxadiazol-2-yl]-phenylamino}-3-fluoro-phenyl)-ethanol], in the data set with MEK [2], the “C26ELSA % Inhib @ 0.5 μM” value came to 31% and the “C26ELSA % Inhibition @ 5 μM” value was found to be 33%. In the case of `OCCNc1nnc(-c2ccc(F)c(F)c2Nc2ccc(CCO)cc2F)o1` [Example 169, 2-(5-{3,4-difluoro-2-[2-fluoro-4-(2-hydroxy-ethyl)phenylamino]-phenyl}-[1,3,4]oxadiazol-2-ylamino)ethanol], in the data set on MEK [2], the IC50 amounted to 5100 nM.
